Laboratory results: patent publication EP0460016B1, “METASTASIS-ASSOCIATED COLLAGENOLYTIC METALLOPROTEINASES” (priority 1989, dated 1990)
Where two headings read alike, the source gives them in different places.

Tests used:
[1] = tested on: Mr 64,000 proteinase; type: biochemical, rat
Method: (§1) Identification of type IV collagenolytic enzymes secreted by mammary adenocarcinoma cells was performed by electrophoresis of serum-free conditioned media in a type IV collagen-embedded polyacrylamide gel followed by incubation and Coomassie blue staining, based on the methods described by Heussen and Dowdle (24). Type IV procollagen was purified from Engelbreth-Holm-Sworn tumors, dissolved in 0.5 M acetic acid or bovine lens capsule type IV collagen pepsin fragments (Seikagaku America, St. Petersburg, FL) in HCl at pH 3.0, neutralized with Tris and immediately dissolved in 2% SDS. After removing undissolved materials by a brief centrifugation at 18,000 x g, SDS-solubilized type IV collagen was copolymerized with 7.5% acrylamide. In some experiments, each of the following proteins was also embedded in SDS-polyacrylamide gels: rat hemoglobin; rat immunoglobulin G; bovine serum ablumin; bovine plasma fibronectin; bovine alpha-casein; and gelatin from swine skin (Sigma Chemical, St. Louis, MO). Electrophoresis of serum, or other samples such as one obtained from conditioned media, was carried out by the method of Laemmli (25) in polyacrylamide gels containing 0.5 to 1.0 mg/ml of type IV collagen.
(§2) In the case of serum samples, serum (2.5 ul) was mixed with the same volume of sodium dodecyl sulfate sample buffer without reducing agents, and immediately subjected to electrophoresis in a 7.5% polyacrylamide gel containing the protein substrates. After electrophoresis, gels were rinsed twice with 2.5% Triton X-100 in 50 mM Tris-HCl buffer, pH 7.5, and incubated at 37`C for 16 h in 0.15 M NaCl, 10 mM CaCl₂ and 50 mM Tris-HCl buffer, pH 7.5, containing 0.05% NaN₃. Gels were stained with 0.05% Coomassie blue, 10% isopropanol, and 10% acetic acid in H₂0 and these destained with 10% isopropanol and 10% acetic acid in H₂0. Type IV collagenolytic enzymes were detected as transparent bands on the blue background of Coomassie blue-stained slab gels.
(§3) In order to conduct zymography using samples obtained by the preparation of conditioned media, the following steps were performed. Mammary adenocarcinoma cells (1 x 10⁶ cells) were seeded in a 10-cm tissue culture plate and cultured for 24 h in […] complete medium containing 10% heat-inactivated FBS. The cells were extensively washed with DPBS and then further cultured in 10 ml of serum-free complete medium. The serum-free culture supernatants were withdrawn and sequentially centrifuged at 800 x g and 18,000 x g, and then aliquots of the supernatants were concentrated with Centricon 30 concentrators (Amicon, Danvers, MA) and mixed with SDS sample buffer.

[2] = target: T1, Mr 88,000 proteinase (88/92 kd type IV collagenolytic metalloproteinase) (Rattus norvegicus, UniProt P50282); type: biochemical
T1 construct: type IV collagenolytic enzymes secreted by mammary adenocarcinoma cells; endogenous in cells; host or cells: rat 13762NF mammary adenocarcinoma cell clones (MTF7-T35.3, MTC, MTLn3-T44.5), serum-free conditioned medium
T1 sequence (P50282 108-708): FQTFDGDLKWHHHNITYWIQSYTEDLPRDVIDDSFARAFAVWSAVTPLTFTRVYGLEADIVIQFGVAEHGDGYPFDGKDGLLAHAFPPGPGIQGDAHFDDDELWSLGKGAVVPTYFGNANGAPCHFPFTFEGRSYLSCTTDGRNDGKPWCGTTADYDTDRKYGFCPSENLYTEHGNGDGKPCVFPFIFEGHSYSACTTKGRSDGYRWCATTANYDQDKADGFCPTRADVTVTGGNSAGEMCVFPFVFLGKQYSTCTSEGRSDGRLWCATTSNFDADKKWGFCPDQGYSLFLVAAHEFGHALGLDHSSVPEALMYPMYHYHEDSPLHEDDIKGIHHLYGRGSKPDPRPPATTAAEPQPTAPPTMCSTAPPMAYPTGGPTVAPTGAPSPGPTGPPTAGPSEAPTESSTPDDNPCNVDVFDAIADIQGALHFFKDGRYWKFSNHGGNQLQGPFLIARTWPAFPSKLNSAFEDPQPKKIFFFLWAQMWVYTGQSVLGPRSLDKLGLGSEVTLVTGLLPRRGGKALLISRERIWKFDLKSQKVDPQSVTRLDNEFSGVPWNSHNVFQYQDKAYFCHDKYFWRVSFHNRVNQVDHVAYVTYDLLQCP
Method: as §1, §2, §3

[3] = 5 mM in incubation buffer, conditioned media from 48 h cultures
[4] = 10 mM in incubation buffer, conditioned media from 48 h cultures
[5] = 2 mM in incubation buffer, conditioned media from 48 h cultures

For CCN1C(=O)C=CC1=O [N-ethylmaleimide], the enzyme activity [1, 3] was “did not inhibit”, the enzyme activity [2, 3] was “did not inhibit” and the enzyme activity ([2]; 5 mM in incubation buffer, conditioned media from 48 h cultures, listed as NEM) was “not inhibited”.
With O=C(O)CN(CCN(CC(=O)O)CC(=O)O)CC(=O)O [EDTA, ethylenediaminetetraacetic acid] the active enzyme bands [1] was “did not appear”, the “active enzyme bands / enzyme activity” value [2] was “did not appear” and the “active enzyme bands / enzyme activity” value ([2]; 10000 µM) was “inactive”.
With c1cnc2c(c1)ccc1cccnc12 [1,10-phenanthroline] the active enzyme bands [1, 4] was “did not appear”, the “active enzyme bands / enzyme activity” value [2, 4] was “did not appear” and the “active enzyme bands / enzyme activity” value ([2]; 10 mM in incubation buffer, conditioned media from 48 h cultures, listed as 1, 10-phenanthroline, 10000 µM) was “inactive”.
O=S(=O)(F)Cc1ccccc1 [phenylmethylsulfonyl fluoride] was tested, and the enzyme activity [1, 5] was “did not inhibit”, the enzyme activity [2, 5] was “did not inhibit” and the enzyme activity ([2]; 2 mM in incubation buffer, conditioned media from 48 h cultures, listed as PMSF) was “not inhibited”.
